Activity calls are given as the source filed them. No cut-off for these calls is given here.
Key:
Cannabinoid receptor 1 = Cannabinoid receptor 1 (Homo sapiens, UniProt P21554); test: Displacement of [3H]CP55940 from human CB1 receptor expressed in CHO cell membranes after 1 hr by scintillation counting
Cannabinoid receptor 2 [1] = target: T1, Cannabinoid receptor 2 (Homo sapiens, UniProt P34972); test: Displacement of [3H]CP55940 from human CB2 receptor expressed in CHO cell membranes after 1 hr by scintillation counting
Homo sapiens = organism: Homo sapiens; test: Selectivity ratio of Ki for human CB1 receptor to Ki for human CB2 receptor
Cannabinoid receptor 2 [2] = target: T1, Cannabinoid receptor 2; test: Agonist activity at human CB2 receptor expressed in CHO cell membranes after 1 hr by [35S]GTPgammaS binding assay; assay type: functional
Cannabinoid receptor 2 [3] = target: T1, Cannabinoid receptor 2; test: Agonist activity at human CB2 receptor expressed in CHO cell membranes after 1 hr by [35S]GTPgammaS binding assay relative to baseline; assay type: functional
Cannabinoid receptor 2 [4] = target: T1, Cannabinoid receptor 2; test: Antagonist activity at human CB2 receptor expressed in CHO cell membranes after 1 hr by [35S]GTPgammaS binding assay; assay type: functional

T1 sequence (P34972 whole entry): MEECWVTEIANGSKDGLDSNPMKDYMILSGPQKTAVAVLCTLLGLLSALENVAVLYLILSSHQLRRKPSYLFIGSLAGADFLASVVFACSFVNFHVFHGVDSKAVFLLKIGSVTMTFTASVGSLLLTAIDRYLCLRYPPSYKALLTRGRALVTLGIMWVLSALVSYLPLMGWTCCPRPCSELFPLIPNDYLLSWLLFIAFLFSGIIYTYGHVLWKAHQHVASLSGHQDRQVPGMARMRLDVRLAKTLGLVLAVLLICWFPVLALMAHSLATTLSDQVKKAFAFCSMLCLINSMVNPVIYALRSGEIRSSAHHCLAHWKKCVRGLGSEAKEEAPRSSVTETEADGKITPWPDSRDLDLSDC
Chain of Cannabinoid receptor 1 (P21554 whole entry): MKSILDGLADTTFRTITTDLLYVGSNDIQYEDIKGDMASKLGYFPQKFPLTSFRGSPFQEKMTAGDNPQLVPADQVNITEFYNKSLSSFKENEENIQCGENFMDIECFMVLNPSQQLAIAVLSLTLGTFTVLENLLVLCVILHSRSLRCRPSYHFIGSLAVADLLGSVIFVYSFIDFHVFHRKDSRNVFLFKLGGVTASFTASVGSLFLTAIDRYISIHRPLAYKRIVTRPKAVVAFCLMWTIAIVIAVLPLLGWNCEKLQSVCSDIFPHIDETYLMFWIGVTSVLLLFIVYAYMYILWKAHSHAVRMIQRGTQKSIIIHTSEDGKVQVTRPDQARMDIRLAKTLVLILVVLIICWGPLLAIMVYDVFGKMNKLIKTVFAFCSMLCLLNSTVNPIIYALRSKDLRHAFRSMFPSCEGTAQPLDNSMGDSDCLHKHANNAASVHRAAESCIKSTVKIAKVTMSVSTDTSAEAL

| SMILES | Ki (Cannabinoid receptor 1) [µM] | Ki (Cannabinoid receptor 2 [1]) [µM] | Ratio Ki (Homo sapiens) | EC50 (Cannabinoid receptor 2 [2]) [µM] | Emax (Cannabinoid receptor 2 [3]) [%] | Activity (Cannabinoid receptor 2 [4]) |
| --- | --- | --- | --- | --- | --- | --- |
| Cc1ccc(CC2CN(C(=O)NC3CCCCC3)N=C2c2ccc(Cl)c(C)c2)cc1 (configuration not stated) | > 3 | 0.385 | > 8 | 0.371 | 187 |  |
| Cc1cccc(C2=NN(C(=O)NC3CCCCC3)CC2Cc2ccccc2)c1 (configuration not stated) | > 3 | > 3 |  |  |  |  |
| O=C(Nc1ccccc1)N1CC(Cc2ccccc2)C(c2ccc(Cl)cc2)=N1 (configuration not stated) | > 3 | > 3 |  |  |  |  |
| Cc1cc(C2=NN(C(=O)Nc3ccccc3)CC2Cc2ccccc2)ccc1Cl (configuration not stated) | > 3 | > 3 |  |  |  |  |
| Cc1ccc(CC2CN(C(=O)NC3C4(C)CCC(C4)C3(C)C)N=C2c2ccc(Cl)c(C)c2)cc1 (configuration not stated) | > 1 | 0.251 | > 4 | 0.191 | 163 |  |
| Cc1cc(C2=NN(C(=O)NC3CCCCC3)CC2C2CCCC2)ccc1Cl (configuration not stated) | > 3 | 3.64 | 1.2 |  |  | Active |
| Cc1ccc(CC2CN(C(=O)Nc3ccccc3)N=C2c2ccc(Cl)c(C)c2)cc1 (configuration not stated) | > 3 | > 1 |  |  |  |  |
| O=C(Nc1ccccc1)N1CC(Cc2ccccc2)C(c2ccccc2)=N1 (configuration not stated) | > 3 | > 3 |  |  |  |  |
| Cc1cc(C2=NN(C(=O)NC3C4(C)CCC(C4)C3(C)C)CC2Cc2ccccc2)ccc1Cl (configuration not stated) | > 1 | 0.689 | > 4 | 0.749 | 183 |  |
| O=C(NC1CCCCC1)N1CC(Cc2ccccc2)C(c2ccc(Cl)cc2)=N1 (configuration not stated) | > 3 | > 3 |  |  |  |  |
| CC(=O)N1CC(Cc2ccccc2)C(c2ccccc2)=N1 (configuration not stated) | > 3 | > 3 |  |  |  |  |
| O=C(NC1CCCCC1)N1CC(Cc2ccccc2)C(c2ccccc2)=N1 (configuration not stated) | > 3 | 0.504 | > 6 | 0.297 | 136 |  |
| Cc1cc(C2=NN(C(=O)NC3CCCCC3)CC2Cc2ccccc2)ccc1Cl (configuration not stated) | > 3 | > 1 |  |  |  |  |
| Cc1cccc(C2=NN(C(=O)Nc3ccccc3)CC2Cc2ccccc2)c1 (configuration not stated) | > 3 | > 3 |  |  |  |  |

Source: ChEMBL document CHEMBL2150847, “Scaffold hopping strategy toward original pyrazolines as selective CB₂ receptor ligands” (Eur J Med Chem, 2012)
